Assay in all cases: relative viability (nuclei count vs DMSO), 5 days (fraction); higher = more cells survive
Compound in the experiment “Bromopyruvate + OSI-027”: C(C(=O)C(=O)O)Br [Bromopyruvate] + COc1cccc2cc(-c3nc([C@H]4CC[C@H](C(=O)O)CC4)n4ncnc(N)c34)[nH]c12 [OSI-027] (partner 0.5 µM)
A digest of the protocol:
(§1)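 Relative viability was taken as the ratio of nuclei in treated wells to nuclei in vehicle wells. Lung cancer cell lines in 1536-well plates received compounds by pin tool one day after seeding, either one drug alone or a fixed anchor-drug dose plus five library-drug doses (not always all listed) in √10 steps. Nuclei were counted on 4× images after 5 days of treatment, and values are medians of duplicate plates.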

Compound in experiment [1]: CC(O)(CS(=O)(=O)c1ccc(F)cc1)C(=O)Nc1ccc(C#N)c(C(F)(F)F)c1 [Bicalutamide] + CCNC(=O)c1noc(-c2cc(C(C)C)c(O)cc2O)c1-c1ccc(CN2CCOCC2)cc1 [Luminespib] (partner 0.01 µM)
In short, it runs like this:
as §1

Compound in the experiment “Bicalutamide + Lapatinib”: CC(O)(CS(=O)(=O)c1ccc(F)cc1)C(=O)Nc1ccc(C#N)c(C(F)(F)F)c1 [Bicalutamide] + CS(=O)(=O)CCNCc1ccc(-c2ccc3ncnc(Nc4ccc(OCc5cccc(F)c5)c(Cl)c4)c3c2)o1 [Lapatinib] (partner 2 µM)
A digest of the protocol:
as §1

Compound in the experiment “Bicalutamide + AZD7762”: CC(O)(CS(=O)(=O)c1ccc(F)cc1)C(=O)Nc1ccc(C#N)c(C(F)(F)F)c1 [Bicalutamide] + NC(=O)Nc1cc(-c2cccc(F)c2)sc1C(=O)N[C@H]1CCCNC1 [AZD7762] (partner 0.2 µM)
In short, it runs like this: as §1

For the cell line NCI-H1792, the relative viability with Bromopyruvate + OSI-027 (first compound 1 µM) amounted to 0.798; with Bromopyruvate + OSI-027 (first compound 3.162 µM), 0.79; with Bromopyruvate + OSI-027 (first compound 10 µM) it was 0.782; in the experiment with Bromopyruvate + OSI-027 (first compound 100 µM), 0.649; in experiment [1] (first compound 0.08 µM), 0.411; in experiment [1] (first compound 0.8 µM) it was 0.571. For the same cell line, the relative viability in experiment [1] (first compound 2.53 µM) was found to be 0.236; with Bicalutamide + Lapatinib (first compound 0.08 µM), 0.958; with Bicalutamide + Lapatinib (first compound 0.253 µM), 0.858; with Bicalutamide + Lapatinib (first compound 0.8 µM), 1.03; with Bicalutamide + Lapatinib (first compound 2.53 µM) it was 0.91; with Bicalutamide + AZD7762 (first compound 0.08 µM), 0.756. Further, the values for the relative viability in the experiment with Bicalutamide + AZD7762 (first compound 0.253 µM), with Bicalutamide + AZD7762 (first compound 0.8 µM) and with Bicalutamide + AZD7762 (first compound 2.53 µM) were 0.522, 0.741 and 0.644, respectively.
Regarding NCI-H1793, the relative viability with Bromopyruvate + OSI-027 (first compound 1 µM) was 0.329; in the experiment with Bromopyruvate + OSI-027 (first compound 3.162 µM) it was 0.285; with Bromopyruvate + OSI-027 (first compound 10 µM) it was 0.249; with Bromopyruvate + OSI-027 (first compound 31.62 µM) it was 0.282; in the experiment with Bromopyruvate + OSI-027 (first compound 100 µM), 0.381; in experiment [1] (first compound 0.08 µM), 0.198. For the same cell line, the relative viability was 0.364 in experiment [1] (first compound 0.253 µM); 0.203 in experiment [1] (first compound 0.8 µM); 0.165 in experiment [1] (first compound 2.53 µM); 0.637 with Bicalutamide + Lapatinib (first compound 0.08 µM); 0.645 in the experiment with Bicalutamide + Lapatinib (first compound 0.253 µM); 1.04 with Bicalutamide + Lapatinib (first compound 0.8 µM). In addition, the relative viability in the experiment with Bicalutamide + Lapatinib (first compound 2.53 µM) turned out to be 0.832; with Bicalutamide + AZD7762 (first compound 0.08 µM), 0.705; with Bicalutamide + AZD7762 (first compound 0.8 µM) it was 0.432; in the experiment with Bicalutamide + AZD7762 (first compound 2.53 µM) it was 0.282.
Turning to NCI-H1915, the relative viability was found to be 0.669 in the experiment with Bromopyruvate + OSI-027 (first compound 1 µM); 0.612 in the experiment with Bromopyruvate + OSI-027 (first compound 3.162 µM); 0.665 with Bromopyruvate + OSI-027 (first compound 10 µM); 0.637 with Bromopyruvate + OSI-027 (first compound 31.62 µM); 0.677 with Bromopyruvate + OSI-027 (first compound 100 µM); 0.761 in experiment [1] (first compound 0.08 µM). Further, the relative viability in experiment [1] (first compound 0.253 µM) came to 0.69; in experiment [1] (first compound 0.8 µM), 0.934; in experiment [1] (first compound 2.53 µM) it was 0.762; with Bicalutamide + Lapatinib (first compound 0.08 µM), 0.933; in the experiment with Bicalutamide + Lapatinib (first compound 0.253 µM) it was 0.933; in the experiment with Bicalutamide + Lapatinib (first compound 0.8 µM), 1.06. The relative viability stood at 0.882 with Bicalutamide + Lapatinib (first compound 2.53 µM); 0.721 in the experiment with Bicalutamide + AZD7762 (first compound 0.08 µM); 0.616 with Bicalutamide + AZD7762 (first compound 0.253 µM); 0.712 with Bicalutamide + AZD7762 (first compound 0.8 µM); 0.682 with Bicalutamide + AZD7762 (first compound 2.53 µM).
On to NCI-H1944, for which the relative viability turned out to be 0.462 with Bromopyruvate + OSI-027 (first compound 1 µM); 0.459 with Bromopyruvate + OSI-027 (first compound 3.162 µM); 0.49 with Bromopyruvate + OSI-027 (first compound 10 µM); 0.415 in the experiment with Bromopyruvate + OSI-027 (first compound 31.62 µM); 0.464 in the experiment with Bromopyruvate + OSI-027 (first compound 100 µM); 0.759 in experiment [1] (first compound 0.08 µM). For the same cell line, the relative viability came out at 0.66 in experiment [1] (first compound 0.253 µM); 0.845 in experiment [1] (first compound 0.8 µM); 0.779 in experiment [1] (first compound 2.53 µM); 0.857 in the experiment with Bicalutamide + Lapatinib (first compound 0.08 µM); 0.607 with Bicalutamide + Lapatinib (first compound 0.253 µM); 0.899 with Bicalutamide + Lapatinib (first compound 0.8 µM). Further, the relative viability amounted to 0.904 with Bicalutamide + Lapatinib (first compound 2.53 µM); 0.496 with Bicalutamide + AZD7762 (first compound 0.08 µM); 0.438 with Bicalutamide + AZD7762 (first compound 0.253 µM); 0.519 with Bicalutamide + AZD7762 (first compound 0.8 µM); 0.366 with Bicalutamide + AZD7762 (first compound 2.53 µM).
Take NCI-H1975: the relative viability with Bromopyruvate + OSI-027 (first compound 1 µM) turned out to be 0.742; with Bromopyruvate + OSI-027 (first compound 3.162 µM) it was 0.912; with Bromopyruvate + OSI-027 (first compound 10 µM) it was 0.687; with Bromopyruvate + OSI-027 (first compound 31.62 µM), 0.731; with Bromopyruvate + OSI-027 (first compound 100 µM), 0.718; in experiment [1] (first compound 0.08 µM), 0.294. For the same cell line, the relative viability was 0.23 in experiment [1] (first compound 0.253 µM); 0.33 in experiment [1] (first compound 0.8 µM); 0.177 in experiment [1] (first compound 2.53 µM); 0.851 in the experiment with Bicalutamide + Lapatinib (first compound 0.08 µM); 0.854 with Bicalutamide + Lapatinib (first compound 0.253 µM); 1.12 with Bicalutamide + Lapatinib (first compound 0.8 µM). For the same cell line, the relative viability with Bicalutamide + Lapatinib (first compound 2.53 µM) worked out at 0.785; with Bicalutamide + AZD7762 (first compound 0.08 µM) it was 0.769; with Bicalutamide + AZD7762 (first compound 0.253 µM) it was 0.783; with Bicalutamide + AZD7762 (first compound 0.8 µM) it was 0.722; with Bicalutamide + AZD7762 (first compound 2.53 µM), 0.667.
For NCI-H1993, the relative viability with Bromopyruvate + OSI-027 (first compound 1 µM) was determined as 0.623; with Bromopyruvate + OSI-027 (first compound 3.162 µM), 0.513; in the experiment with Bromopyruvate + OSI-027 (first compound 10 µM) it was 0.525; with Bromopyruvate + OSI-027 (first compound 31.62 µM), 0.549; with Bromopyruvate + OSI-027 (first compound 100 µM) it was 0.539; in experiment [1] (first compound 0.08 µM), 0.835. Moreover, the relative viability in experiment [1] (first compound 0.253 µM) amounted to 0.894; in experiment [1] (first compound 0.8 µM) it was 1.07; in experiment [1] (first compound 2.53 µM), 0.999; in the experiment with Bicalutamide + Lapatinib (first compound 0.253 µM) it was 0.897; with Bicalutamide + Lapatinib (first compound 0.8 µM), 0.732; with Bicalutamide + Lapatinib (first compound 2.53 µM), 0.854. The relative viability with Bicalutamide + AZD7762 (first compound 0.08 µM) is 0.539; with Bicalutamide + AZD7762 (first compound 0.253 µM), 0.744; with Bicalutamide + AZD7762 (first compound 0.8 µM), 0.919; with Bicalutamide + AZD7762 (first compound 2.53 µM) it was 0.58.
As to NCI-H2085, the relative viability in the experiment with Bromopyruvate + OSI-027 (first compound 1 µM) worked out at 0.794; in the experiment with Bromopyruvate + OSI-027 (first compound 3.162 µM), 0.931; with Bromopyruvate + OSI-027 (first compound 10 µM) it was 0.798; with Bromopyruvate + OSI-027 (first compound 31.62 µM), 0.726; with Bromopyruvate + OSI-027 (first compound 100 µM), 0.797; in experiment [1] (first compound 0.08 µM) it was 0.59. In addition, the relative viability in experiment [1] (first compound 0.253 µM) is 0.587; in experiment [1] (first compound 0.8 µM), 0.459; in experiment [1] (first compound 2.53 µM), 0.448; with Bicalutamide + Lapatinib (first compound 0.08 µM) it was 0.776; in the experiment with Bicalutamide + Lapatinib (first compound 0.253 µM), 0.739; in the experiment with Bicalutamide + Lapatinib (first compound 0.8 µM), 0.839. In addition, the relative viability with Bicalutamide + Lapatinib (first compound 2.53 µM) is 0.704; in the experiment with Bicalutamide + AZD7762 (first compound 0.08 µM) it was 0.983; in the experiment with Bicalutamide + AZD7762 (first compound 0.253 µM) it was 0.99; in the experiment with Bicalutamide + AZD7762 (first compound 0.8 µM) it was 1.02; with Bicalutamide + AZD7762 (first compound 2.53 µM), 0.901.
Turning to NCI-H2087, the relative viability stood at 0.55 with Bromopyruvate + OSI-027 (first compound 1 µM); 0.612 with Bromopyruvate + OSI-027 (first compound 3.162 µM); 0.637 in the experiment with Bromopyruvate + OSI-027 (first compound 10 µM); 0.542 with Bromopyruvate + OSI-027 (first compound 31.62 µM); 0.462 with Bromopyruvate + OSI-027 (first compound 100 µM); 0.157 in experiment [1] (first compound 0.08 µM). Further, the relative viability in experiment [1] (first compound 0.253 µM) was 0.153; in experiment [1] (first compound 0.8 µM), 0.168; in experiment [1] (first compound 2.53 µM), 0.259; with Bicalutamide + Lapatinib (first compound 0.08 µM), 1.24; with Bicalutamide + Lapatinib (first compound 0.253 µM), 1.01; with Bicalutamide + Lapatinib (first compound 0.8 µM) it was 1.15. Also, the relative viability was 1 with Bicalutamide + Lapatinib (first compound 2.53 µM); 1.29 in the experiment with Bicalutamide + AZD7762 (first compound 0.08 µM); 1.29 with Bicalutamide + AZD7762 (first compound 0.253 µM); 1.58 with Bicalutamide + AZD7762 (first compound 0.8 µM); 1.26 with Bicalutamide + AZD7762 (first compound 2.53 µM).

The record behind these values is the supplement of paper PMC10307832.
